The target in data set [1] is T1, P450 1A2 (Homo sapiens, UniProt P05177).
T1 sequence (P05177 1-516): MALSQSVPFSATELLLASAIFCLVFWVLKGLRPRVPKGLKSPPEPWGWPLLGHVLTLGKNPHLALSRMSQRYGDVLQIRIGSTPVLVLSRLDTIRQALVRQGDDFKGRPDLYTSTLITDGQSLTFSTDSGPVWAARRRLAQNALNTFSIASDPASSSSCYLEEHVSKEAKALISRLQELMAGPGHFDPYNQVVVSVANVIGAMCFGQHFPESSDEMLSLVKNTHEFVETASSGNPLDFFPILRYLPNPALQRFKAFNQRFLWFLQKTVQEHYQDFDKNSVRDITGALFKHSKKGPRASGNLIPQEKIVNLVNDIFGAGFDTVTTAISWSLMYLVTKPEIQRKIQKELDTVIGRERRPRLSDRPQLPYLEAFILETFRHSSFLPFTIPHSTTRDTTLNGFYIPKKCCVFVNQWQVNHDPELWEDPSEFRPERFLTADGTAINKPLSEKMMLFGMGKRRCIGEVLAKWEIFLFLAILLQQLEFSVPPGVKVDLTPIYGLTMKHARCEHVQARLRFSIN

The target in data set [2] is P450 3A4 (Homo sapiens, UniProt P08684). Description: P450 inhibition at 10 μM. Type of data set: in vitro ADME.
P450 3A4, sequence (P08684 whole entry): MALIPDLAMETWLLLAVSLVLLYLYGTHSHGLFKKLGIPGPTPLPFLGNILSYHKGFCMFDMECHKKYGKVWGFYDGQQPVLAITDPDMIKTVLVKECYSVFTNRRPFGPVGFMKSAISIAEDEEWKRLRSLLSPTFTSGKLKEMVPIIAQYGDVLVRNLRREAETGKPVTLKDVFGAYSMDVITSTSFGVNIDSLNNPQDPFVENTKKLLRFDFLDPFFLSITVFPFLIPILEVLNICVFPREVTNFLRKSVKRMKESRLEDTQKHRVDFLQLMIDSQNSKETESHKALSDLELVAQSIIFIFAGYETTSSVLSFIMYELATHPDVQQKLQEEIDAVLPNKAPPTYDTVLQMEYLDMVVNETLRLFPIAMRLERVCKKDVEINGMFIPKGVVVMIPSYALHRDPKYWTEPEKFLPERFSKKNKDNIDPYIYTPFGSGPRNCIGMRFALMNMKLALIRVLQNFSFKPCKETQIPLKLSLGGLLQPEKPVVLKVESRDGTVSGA
Data set [3] has as its target P450 2D6 (Homo sapiens, UniProt P10635). In words: P450 inhibition at 10 μM. Type of data set: in vitro ADME.
The nature of data set [4]: Microsomal stability, rat liver microsomes. Type of data set: in vitro ADME. The following applies: rat liver microsomes. Background: Liver microsomes are vesicles of endoplasmic reticulum, rich in cytochrome P450 enzymes.
Data set [5] addresses ROCK-II (Homo sapiens, UniProt O75116). In words: ROCK-II biochemical counter-screen. Particulars: means of ≥2 experiments, read-out: IC50 (nM) ROCK-II. For orientation: Counterscreens check selectivity or assay interference.
Data set [6] in a line: Microsomal stability, human liver microsomes. Type of data set: in vitro ADME.
The target of data set [7] is P450 2C9 (Homo sapiens, UniProt P11712). In words: P450 inhibition at 10 μM. Type of data set: in vitro ADME.
P450 2C9, sequence (P11712 whole entry): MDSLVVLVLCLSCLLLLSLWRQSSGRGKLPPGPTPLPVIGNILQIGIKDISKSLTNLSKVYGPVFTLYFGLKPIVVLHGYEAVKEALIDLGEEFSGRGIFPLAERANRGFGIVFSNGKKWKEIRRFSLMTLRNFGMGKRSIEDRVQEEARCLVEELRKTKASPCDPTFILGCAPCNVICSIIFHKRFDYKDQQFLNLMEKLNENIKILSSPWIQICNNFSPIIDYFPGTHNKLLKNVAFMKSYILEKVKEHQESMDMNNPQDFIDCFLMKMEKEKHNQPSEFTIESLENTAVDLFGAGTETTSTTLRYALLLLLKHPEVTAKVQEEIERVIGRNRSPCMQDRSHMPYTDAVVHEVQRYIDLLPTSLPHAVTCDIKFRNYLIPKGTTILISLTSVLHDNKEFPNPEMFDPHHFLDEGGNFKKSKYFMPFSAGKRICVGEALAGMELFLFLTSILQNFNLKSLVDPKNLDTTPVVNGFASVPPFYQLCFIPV
Data set [8] addresses ROCK-I (Homo sapiens, UniProt Q13464). Description: ROCK-I biochemical counter-screen. Particulars: Table 6; read-out: Biochemical Inhibition IC50 (nM) ROCK-I.
Data set [9] has as its target Limk1 (Homo sapiens, UniProt P53667). In words: Limk1 biochemical assay (Reaction Biology, 10-dose IC50). Details: His; purchased Reaction Biology Corporation; host or cells: insect cells.
A short description of data set [10]: Plasma pharmacokinetics studies on rats. The following applies: rats; for AUC (iv) / Cl (iv) / T1/2 (iv) / Yd (iv) / Cmax: iv dosing 1 mg/kg; for F (%) (po): po dosing 2 mg/kg; for Cmax: read-out: Cmax (iv). Here is the method: In vivo pharmacokinetics (PK) studies were conducted for selected compounds during the whole optimization at various stages in order to identify structural elements that are favorable for in vivo applications, and/or to evaluate the feasibility of optimized Limk inhibitors for animal studies.

In data set [11] the target is JNK3 (Homo sapiens, UniProt P53779). In words: JNK3 biochemical counter-screen. Particulars: Table 6; read-out: Biochemical Inhibition IC50 (nM) JNK3.
JNK3, sequence (P53779 whole entry, species assumed): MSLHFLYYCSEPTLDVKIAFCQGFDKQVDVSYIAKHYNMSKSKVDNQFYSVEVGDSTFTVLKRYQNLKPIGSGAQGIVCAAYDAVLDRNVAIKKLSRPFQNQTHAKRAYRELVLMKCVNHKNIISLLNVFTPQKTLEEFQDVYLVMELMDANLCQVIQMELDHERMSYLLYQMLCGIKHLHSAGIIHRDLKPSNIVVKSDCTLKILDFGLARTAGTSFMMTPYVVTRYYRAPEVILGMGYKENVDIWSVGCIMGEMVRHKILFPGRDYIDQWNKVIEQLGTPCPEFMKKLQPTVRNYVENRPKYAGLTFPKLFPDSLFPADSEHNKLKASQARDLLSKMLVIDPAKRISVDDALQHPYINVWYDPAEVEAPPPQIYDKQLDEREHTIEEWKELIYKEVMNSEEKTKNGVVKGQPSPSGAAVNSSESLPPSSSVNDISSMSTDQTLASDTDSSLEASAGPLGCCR
Data set [12] has as its system HIV-1(NL4-3). In words: microbe, parasite or virus in culture. Type of data set: cell-based. The following applies: […]; dosages with no detectable cytotoxicity.
[13] abbreviates: Table 4, means of ≥2 experiments, read-out: IC50 (nM) Limk1.

Where two headings read alike, the source gives them in different places.

Limk1, sequence (P53667 285-638): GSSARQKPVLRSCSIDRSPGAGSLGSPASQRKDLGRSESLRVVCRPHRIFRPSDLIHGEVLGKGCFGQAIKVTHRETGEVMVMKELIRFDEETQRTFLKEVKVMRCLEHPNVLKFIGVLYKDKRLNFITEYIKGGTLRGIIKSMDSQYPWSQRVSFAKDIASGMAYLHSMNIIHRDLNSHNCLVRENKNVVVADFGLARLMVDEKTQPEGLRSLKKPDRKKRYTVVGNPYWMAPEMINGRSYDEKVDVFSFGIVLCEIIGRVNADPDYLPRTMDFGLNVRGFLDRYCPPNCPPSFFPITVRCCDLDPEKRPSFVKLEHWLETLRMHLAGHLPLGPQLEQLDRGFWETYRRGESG
P450 2D6, sequence (P10635 whole entry): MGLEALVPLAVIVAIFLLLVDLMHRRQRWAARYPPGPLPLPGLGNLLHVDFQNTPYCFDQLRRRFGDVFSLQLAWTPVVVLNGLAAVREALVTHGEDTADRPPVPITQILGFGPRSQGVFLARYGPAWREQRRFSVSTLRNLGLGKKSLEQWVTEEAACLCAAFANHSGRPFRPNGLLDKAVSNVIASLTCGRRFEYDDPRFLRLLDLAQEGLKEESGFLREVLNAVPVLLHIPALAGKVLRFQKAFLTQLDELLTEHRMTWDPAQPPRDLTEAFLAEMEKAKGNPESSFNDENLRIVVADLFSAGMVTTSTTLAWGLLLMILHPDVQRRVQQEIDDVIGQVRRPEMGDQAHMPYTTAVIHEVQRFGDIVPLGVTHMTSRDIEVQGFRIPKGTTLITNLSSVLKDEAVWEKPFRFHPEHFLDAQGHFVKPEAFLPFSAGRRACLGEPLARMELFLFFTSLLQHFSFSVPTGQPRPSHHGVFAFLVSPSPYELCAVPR
ROCK-II, sequence (O75116 whole entry, species assumed): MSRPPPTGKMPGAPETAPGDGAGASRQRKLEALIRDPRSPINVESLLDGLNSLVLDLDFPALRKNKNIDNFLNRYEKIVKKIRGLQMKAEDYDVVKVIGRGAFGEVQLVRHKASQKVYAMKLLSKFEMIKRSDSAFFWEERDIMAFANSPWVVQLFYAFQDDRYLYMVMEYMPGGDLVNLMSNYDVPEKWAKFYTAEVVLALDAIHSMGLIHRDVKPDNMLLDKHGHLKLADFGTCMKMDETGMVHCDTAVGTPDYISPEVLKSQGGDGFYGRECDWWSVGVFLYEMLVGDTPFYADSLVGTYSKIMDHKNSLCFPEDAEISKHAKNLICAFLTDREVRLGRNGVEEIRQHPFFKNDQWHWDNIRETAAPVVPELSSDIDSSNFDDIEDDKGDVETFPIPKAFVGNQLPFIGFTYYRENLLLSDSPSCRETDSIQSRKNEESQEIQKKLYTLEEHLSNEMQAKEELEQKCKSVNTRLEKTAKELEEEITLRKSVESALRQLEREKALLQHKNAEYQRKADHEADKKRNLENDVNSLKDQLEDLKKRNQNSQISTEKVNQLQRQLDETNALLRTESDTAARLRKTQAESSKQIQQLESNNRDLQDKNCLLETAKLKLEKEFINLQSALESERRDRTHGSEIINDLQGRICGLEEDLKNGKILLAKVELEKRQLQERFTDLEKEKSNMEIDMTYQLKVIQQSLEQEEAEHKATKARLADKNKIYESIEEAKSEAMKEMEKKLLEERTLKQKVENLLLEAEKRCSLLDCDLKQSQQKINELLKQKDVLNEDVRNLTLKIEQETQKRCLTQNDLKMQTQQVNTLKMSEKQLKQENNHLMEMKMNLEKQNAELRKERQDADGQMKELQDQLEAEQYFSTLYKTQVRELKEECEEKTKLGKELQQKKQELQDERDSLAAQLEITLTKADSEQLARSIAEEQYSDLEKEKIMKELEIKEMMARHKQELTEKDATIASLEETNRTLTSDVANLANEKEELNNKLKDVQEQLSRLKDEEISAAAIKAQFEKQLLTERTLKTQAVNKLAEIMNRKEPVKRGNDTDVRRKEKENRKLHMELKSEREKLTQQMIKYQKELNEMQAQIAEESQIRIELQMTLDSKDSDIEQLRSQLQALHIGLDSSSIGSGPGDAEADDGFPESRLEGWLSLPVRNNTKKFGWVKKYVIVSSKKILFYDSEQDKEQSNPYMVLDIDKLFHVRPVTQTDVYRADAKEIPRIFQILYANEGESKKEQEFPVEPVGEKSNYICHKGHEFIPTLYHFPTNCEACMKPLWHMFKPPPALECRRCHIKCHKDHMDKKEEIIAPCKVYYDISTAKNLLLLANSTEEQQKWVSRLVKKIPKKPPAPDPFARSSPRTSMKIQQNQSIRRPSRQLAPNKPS
ROCK-I, sequence (Q13464 whole entry, species assumed): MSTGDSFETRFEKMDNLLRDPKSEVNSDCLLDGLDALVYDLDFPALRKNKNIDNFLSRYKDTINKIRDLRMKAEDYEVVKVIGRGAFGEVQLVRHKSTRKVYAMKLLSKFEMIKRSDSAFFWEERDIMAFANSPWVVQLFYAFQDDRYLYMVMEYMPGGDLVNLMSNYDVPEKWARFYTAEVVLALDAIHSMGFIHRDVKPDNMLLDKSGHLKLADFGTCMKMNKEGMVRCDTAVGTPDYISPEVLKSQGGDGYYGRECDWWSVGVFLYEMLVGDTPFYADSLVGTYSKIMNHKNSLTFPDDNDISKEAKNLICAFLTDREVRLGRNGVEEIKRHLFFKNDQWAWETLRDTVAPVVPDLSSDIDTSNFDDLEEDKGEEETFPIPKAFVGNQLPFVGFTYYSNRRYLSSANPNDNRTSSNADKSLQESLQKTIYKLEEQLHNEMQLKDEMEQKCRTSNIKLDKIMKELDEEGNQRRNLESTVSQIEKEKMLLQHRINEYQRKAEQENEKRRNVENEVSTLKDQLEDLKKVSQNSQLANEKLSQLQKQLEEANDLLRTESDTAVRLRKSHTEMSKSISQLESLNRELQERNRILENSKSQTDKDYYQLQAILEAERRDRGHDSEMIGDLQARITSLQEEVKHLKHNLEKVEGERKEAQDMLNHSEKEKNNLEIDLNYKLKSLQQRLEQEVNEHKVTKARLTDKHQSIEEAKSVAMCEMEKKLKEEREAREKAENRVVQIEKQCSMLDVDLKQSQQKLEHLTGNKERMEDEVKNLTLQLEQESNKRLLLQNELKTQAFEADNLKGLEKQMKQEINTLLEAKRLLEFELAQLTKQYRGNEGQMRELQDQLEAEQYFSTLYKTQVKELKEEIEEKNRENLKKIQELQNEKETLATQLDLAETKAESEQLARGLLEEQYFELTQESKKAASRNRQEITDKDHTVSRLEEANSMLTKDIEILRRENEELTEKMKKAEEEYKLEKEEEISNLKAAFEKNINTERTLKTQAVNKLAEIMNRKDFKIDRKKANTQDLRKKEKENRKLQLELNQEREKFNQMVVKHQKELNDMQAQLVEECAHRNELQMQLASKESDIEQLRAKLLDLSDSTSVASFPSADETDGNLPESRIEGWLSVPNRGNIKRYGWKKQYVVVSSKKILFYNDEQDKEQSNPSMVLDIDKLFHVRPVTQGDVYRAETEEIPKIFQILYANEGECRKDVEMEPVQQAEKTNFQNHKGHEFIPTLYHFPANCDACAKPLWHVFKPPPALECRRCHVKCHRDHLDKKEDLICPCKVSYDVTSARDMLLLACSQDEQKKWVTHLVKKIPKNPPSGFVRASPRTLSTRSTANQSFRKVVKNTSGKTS

One may read the IC50 as the concentration that inhibits the measured activity by half. As to `Cc1[nH]c2ncnc(-c3ccc(NC(=O)Nc4cccc(C(=O)NC(C)C)c4)cc3)c2c1C` [Compound 7i, 3-(3-(4-(5,6-Dimethyl-7H-pyrrolo[2,3-d]pyrimidin-4-yl)phenyl)ureido)-N-isopropylbenzamide], the “P450 % inh. at 10 μM 1A2” value in data set [1] (10 μM) is 77%. Moreover, the “P450 % inh. at 10 μM 3A4” value in data set [2] is on record as 42%. For the same compound, in [3], the “P450 % inh. at 10 μM 2D6” value is 34%. Moreover, the “Microsomal Stability t1/2 (min) Rat” value in [4] was greater than 120 min. In addition, the IC50 is greater than 10000 nM in data set [5] (Table 1); greater than 20000 nM in [8]; 80 nM in data set [9] (Table 1, means of ≥2 experiments, read-out: IC50 (nM) Limk1). The “Microsomal Stability t1/2 (min) Human” value in data set [6] is reported as 47 min. The “P450 % inh. at 10 μM 2C9” value in data set [7] came to 42%.
In general, Cmax refers to the peak of the concentration-time curve. With `Cc1c[nH]c2ncnc(-c3ccc(NC(=O)Nc4cccc(C(=O)NC(C)C)c4)c(F)c3)c12` [Compound 7k, 3-(3-(2-Fluoro-4-(5-methyl-7H-pyrrolo[2,3-d]pyrimidin-4-yl)phenyl)ureido)-N-isopropylbenzamide], the “P450 % inh. at 10 μM 1A2” value in data set [1] (10 μM) is listed as 29%. Further, the “P450 % inh. at 10 μM 3A4” value in data set [2] is 32%. Moreover, the “P450 % inh. at 10 μM 2D6” value in data set [3] amounted to 13%. Also, in data set [4], the “Microsomal Stability t1/2 (min) Rat” value worked out at 55 min. The IC50 in data set [5] (Table 2) is 781 nM. The “Microsomal Stability t1/2 (min) Human” value in data set [6] was 27 min. The “P450 % inh. at 10 μM 2C9” value in [7] was 35%. Besides, in data set [10], the “AUC (iv)” value is 5.5 µM·h, the “Cl (iv)” value is 7.1 mL/min/kg, the “T1/2 (iv)” value turned out to be 90 min and the “Yd (iv)” value is on record as 0.7 L/kg. For the same compound, in data set [10], the “F (%) (po)” value stood at 0% and the Cmax is 5.1 µM. The IC50 in data set [8] is 2390 nM. Moreover, in [9] (read-out: Limk1 IC50), the IC50 was found to be 18 nM.
On to `Cc1c[nH]c2ncnc(-c3ccc(NC(=O)N(CCO)c4ccc(F)cc4)cc3)c12` [Compound 18e, 1-(4-Fluorophenyl)-1-(2-hydroxyethyl)-3-(4-(5-methyl-7H-pyrrolo[2,3-d]pyrimidin-4-yl)phenyl)urea], for which, in data set [1] (10 μM), the “P450 % inh. at 10 μM 1A2” value is listed as −4%. In addition, the “P450 % inh. at 10 μM 3A4” value in data set [2] turned out to be 25%. Besides, the “P450 % inh. at 10 μM 2D6” value in [3] worked out at 3%. In [4], the “Microsomal Stability t1/2 (min) Rat” value is recorded as 52 min. Moreover, the 50% inhibitory concentration (IC50) is 3240 nM in [5] (Table 4), greater than 10000 nM in [11] and 3920 nM in [8]. The “Microsomal Stability t1/2 (min) Human” value in data set [6] was 44 min. Moreover, the “P450 % inh. at 10 μM 2C9” value in [7] turned out to be 13%.
On to `Cc1ccc(N(CCO)C(=O)Nc2ccc(-c3ncnc4[nH]cc(C)c34)cc2)cc1` [Compound 18k, 1-(2-Hydroxyethyl)-3-(4-(5-methyl-7H-pyrrolo[2,3-d]pyrimidin-4-yl)phenyl)-1-p-tolylurea], for which the “P450 % inh. at 10 μM 1A2” value in data set [1] (10 μM) is listed as −5%. Moreover, the “P450 % inh. at 10 μM 3A4” value in data set [2] turned out to be 5%. For the same compound, in data set [3], the “P450 % inh. at 10 μM 2D6” value is on record as −4%. For the same compound, the “Microsomal Stability t1/2 (min) Rat” value in data set [4] worked out at 39 min. In data set [5] (Table 4), the IC50 was determined as 5930 nM. Further, in [6], the “Microsomal Stability t1/2 (min) Human” value is 56 min. In addition, the “P450 % inh. at 10 μM 2C9” value in data set [7] is recorded as 24%. For the same compound, in [11], the concentration for half-maximal inhibition (IC50) is greater than 10000 nM. Also, in [10], the “AUC (iv)” value was found to be 15.6 µM·h, the “Cl (iv)” value was 2.7 mL/min/kg, the “T1/2 (iv)” value worked out at 108 min and the “Yd (iv)” value is 0.3 L/kg. For the same compound, in data set [10], the “F (%) (po)” value stood at 24% and the Cmax is 9.4 µM. Also, the IC50 in data set [8] came out at 7630 nM. For the same compound, the IC50 in [9] (setting [13]) was determined as 37 nM.
As for `COc1cccc(N(CCO)C(=O)Nc2ccc(-c3ncnc4[nH]cc(C)c34)cc2)c1` [Compound 18m, 1-(2-Hydroxyethyl)-1-(3-methoxyphenyl)-3-(4-(5-methyl-7H-pyrrolo[2,3-d]pyrimidin-4-yl)phenyl)urea], the “P450 % inh. at 10 μM 1A2” value in [1] was 3/17/3/44%. For the same compound, the “P450 % inh. at 10 μM 3A4” value in data set [2] came out at 44%. The “P450 % inh. at 10 μM 2D6” value in data set [3] is given as 3%. In addition, in [4], the “Microsomal Stability t1/2 (min) Rat” value turned out to be 21 min. Also, the IC50 in [5] (Table 4) amounted to 3220 nM; in data set [8], 4320 nM; in data set [9] (setting [13]), 100 nM. Moreover, in data set [6], the “Microsomal Stability t1/2 (min) Human” value is given as 38 min. Besides, the “P450 % inh. at 10 μM 2C9” value in data set [7] is listed as 17%.
`COc1ccc(N(CCO)C(=O)Nc2ccc(-c3ncnc4[nH]cc(C)c34)cc2)cc1` [Compound 18n, 1-(2-hydroxyethyl)-1-(4-methoxyphenyl)-3-(4-(5-methyl-7H-pyrrolo[2,3-d]pyrimidin-4-yl)phenyl)urea]: the “Microsomal Stability t1/2 (min) Rat” value in data set [4] is recorded as 40 min. Besides, the IC50 in [5] (Table 4) was greater than 10000 nM. Besides, in [6], the “Microsomal Stability t1/2 (min) Human” value is recorded as 56 min. For the same compound, the IC50 in data set [11] is greater than 10000 nM. For the same compound, in data set [10], the “AUC (iv)” value came out at 19.4 µM·h, the “Cl (iv)” value is recorded as 2.1 mL/min/kg, the “T1/2 (iv)” value stood at 132 min and the Cmax is 10.6 µM. Also, the IC50 in data set [8] was greater than 20000 nM. For the same compound, the IC50 in data set [9] (setting [13]) worked out at 53 nM.
As to `Cc1[nH]c2ncnc(-c3ccc(NC(=O)N(CCO)c4ccc(Cl)cc4)c(F)c3)c2c1C` [Compound 18s, 1-(4-Chlorophenyl)-3-(4-(5,6-dimethyl-7H-pyrrolo[2,3-d]pyrimidin-4-yl)-2-fluorophenyl)-1-(2-hydroxyethyl)urea], the “P450 % inh. at 10 μM 1A2” value in data set [1] (10 μM) was found to be 40%. The “P450 % inh. at 10 μM 3A4” value in data set [2] was 16%. Besides, in data set [3], the “P450 % inh. at 10 μM 2D6” value is recorded as 8%. Besides, the “Microsomal Stability t1/2 (min) Rat” value in [4] worked out at 44 min. In addition, the “Microsomal Stability t1/2 (min) Human” value in [6] worked out at 99 min. Also, in data set [7], the “P450 % inh. at 10 μM 2C9” value is on record as 13%. Besides, the IC50 in [11] was greater than 10000 nM. Besides, in data set [10], the “AUC (iv)” value is 14.5 µM·h, the “Cl (iv)” value came to 4.5 mL/min/kg, the “T1/2 (iv)” value came to 192 min and the “Yd (iv)” value was 0.5 L/kg. In data set [10], the “F (%) (po)” value is listed as 29% and the peak concentration (Cmax) was 12.3 µM.
In the case of `Cc1[nH]c2ncnc(-c3ccc(NC(=O)N(CCN)c4ccc(Cl)cc4)c(F)c3)c2c1C` [Compound 18t, 1-(2-Amino-ethyl)-1-(4-chloro-phenyl)-3-[4-(5,6-dimethyl-7H-pyrrolo[2,3-d]pyrimidin-4-yl)-2-fluoro-phenyl]-urea], the “P450 % inh. at 10 μM 1A2” value in [1] (10 μM) amounted to 24%. In addition, the “P450 % inh. at 10 μM 3A4” value in data set [2] is −11%. For the same compound, the “P450 % inh. at 10 μM 2D6” value in data set [3] amounted to 52%. In [4], the “Microsomal Stability t1/2 (min) Rat” value is given as greater than 120 min. Further, the “Microsomal Stability t1/2 (min) Human” value in [6] is greater than 120 min. The “P450 % inh. at 10 μM 2C9” value in data set [7] is reported as 24%. Moreover, the IC50 in data set [11] is greater than 10000 nM.
For `Cc1c[nH]c2ncnc(N3CCC(c4nc5cc(C#N)ccc5[nH]4)CC3)c12` [Compound R8212], the “X4 HIV infection (screen)” value in data set [12] is “blocked”. Also, the IC50 in data set [9] (Table 8, read-out: LIMK1 IC50) stood at 44 ± 6 nM.
As to `CC1(c2nc3ccc(C(=O)NC4CCC4)cc3[nH]2)CCN(c2ncnc3[nH]ccc23)CC1` [Compound R8482], in data set [12], the “X4 HIV infection (screen)” value was “blocked”. In addition, in data set [9] (Table 8, read-out: LIMK1 IC50), the IC50 came out at 41 ± 4 nM.
The corresponding values for `Cc1c[nH]c2ncnc(-c3ccc(-c4nc5ccc(C(=O)NC6CCCC6)cc5[nH]4)c(F)c3)c12` [Compound R8584] are “blocked” and 50 ± 7 nM.
On the same counts, the results for `CC(C)NC(=O)c1ccc2[nH]c(N3CCN(c4ncnc5[nH]cc(Cl)c45)C[C@@H]3C)nc2c1` [Compound R10543] are “blocked” and 5 ± 2 nM.
The corresponding values for `CCOC(=O)c1ccc2nc(N3CCN(c4ncnc5[nH]cc(Cl)c45)[C@H](C)C3)[nH]c2c1` [Compound R10659] are “blocked” and 45 ± 6 nM.
